Data: patent US5872097A, “Oligopeptides with affinity to opioid receptors” (Pharmacia & Upjohn Aktiebolag, priority 1992, dated 1999)
pIC50, pKi: −log10 of the molar value. Bridge positions count the residues as written; N and C are the ends. Square brackets hold non-standard residues; d marks the D form. Ends that are not written are not given here. Peptide text beside a SMILES is read from it. Dab = NCC[C@H](N)C(=O)O

Legend:
[1] = molecular target: T1, μ-receptor (Rattus norvegicus, UniProt P33535); assay: (3H)-DAMGO displacement receptor assay; type: binding; details: LIGAND program; for pIC50: displacement of (3H)-DAMGO specific binding, radioligand about 24 x 10^-10 M
T1 construct: from tissue; host or cells: rat brain (homogenate / synaptic plasma membranes, whole brain without cerebellum)
T1 sequence (P33535 whole entry): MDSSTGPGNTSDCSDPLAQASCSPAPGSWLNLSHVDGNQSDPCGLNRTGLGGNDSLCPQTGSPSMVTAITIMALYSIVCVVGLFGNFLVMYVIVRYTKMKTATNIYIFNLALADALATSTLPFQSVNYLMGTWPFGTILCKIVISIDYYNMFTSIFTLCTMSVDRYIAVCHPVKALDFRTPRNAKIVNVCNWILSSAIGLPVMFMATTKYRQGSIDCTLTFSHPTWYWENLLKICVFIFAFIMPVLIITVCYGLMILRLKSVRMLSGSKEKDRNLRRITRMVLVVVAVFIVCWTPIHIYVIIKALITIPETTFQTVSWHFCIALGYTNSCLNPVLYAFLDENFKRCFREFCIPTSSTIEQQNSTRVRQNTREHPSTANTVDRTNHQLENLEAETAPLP
Experimental: (§1) In the experiments noted in FIGS. 3 and 4 and in Table 1 (^3 H)-(D-Ala^2,MePhe^4,Gly-ol^5)-enkephalin (DAGO or DAMGO) and (^3 H)-(D-Ala^2,D-Leu^5)-enkephalin (DADL) purchased from Amersham (Buckinghamshire, England) were used as radioligands in a binding assay performed as in Reg.
(§2) The peptides were employed for both receptor tests and bioassays on electrically stimulated guinea pig ileum strips (GPI-tests). The receptor assays were performed in the same manner as above with DAMGO as a radioligand to the μ-receptor. In the assays (^3 H)-DAMGO specific binding was displaced by the different tested substances (10^-5 M to 10^-10 M). […] Ups. […] The magnitude of activity in relation to a standard compound, normorphine was recorded.

[2] = molecular target: T2, μ-receptor ((3H)-DAGO binding site) (Rattus norvegicus, UniProt P33535); assay: (3H)-DAGO binding assay, rat brain homogenates; details: duplicate determination, one site model, EBDA/LIGAND
T2 construct: from tissue; host or cells: rat brain (homogenate / synaptic plasma membranes, whole brain without cerebellum)
T2 sequence (P33535 whole entry): as above
Text: as §1
(§3) In the publication β-Casomorphins and Related Peptides Ed.

[3] = system: electrically stimulated guinea pig ileum strips; details: relative to standard compound normorphine = 1
Experimental: as §2

[4] = molecular target: T3, δ-receptor ((3H)-DADL binding site) (Rattus norvegicus, UniProt P33533); assay: (3H)-DADL binding assay, rat brain homogenates; details: duplicate determination, one site model, EBDA/LIGAND
T3 construct: from tissue; host or cells: rat brain homogenate
T3 sequence (P33533 whole entry): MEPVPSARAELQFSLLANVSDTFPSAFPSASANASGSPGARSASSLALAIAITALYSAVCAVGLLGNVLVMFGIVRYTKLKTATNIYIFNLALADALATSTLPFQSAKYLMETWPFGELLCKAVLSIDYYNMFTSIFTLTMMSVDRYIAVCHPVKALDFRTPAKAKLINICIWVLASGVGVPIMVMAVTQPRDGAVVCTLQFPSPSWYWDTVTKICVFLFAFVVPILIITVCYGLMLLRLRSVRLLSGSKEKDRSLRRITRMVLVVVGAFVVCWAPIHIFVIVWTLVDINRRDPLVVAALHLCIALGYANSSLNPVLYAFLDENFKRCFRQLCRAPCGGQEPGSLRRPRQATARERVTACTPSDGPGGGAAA
Text: as §1, §3

Molecule | pIC50 [1] | GPI-test relative activity normorphine = 1 [3] | other results
YSFLE-NH2 [Tyr-Ser-Phe-Leu-Glu-NH2] | 8.59 | – | –
YPFVE [Tyr--Pro--Phe--Val--Glu, Tyr-Pro-Phe-Val-Glu, reference compound] | – | – | pKi [2]: 5.05
CC(C)C[C@H](NC(=O)[C@H](Cc1ccccc1)NC(=O)[C@@H](C)NC(=O)[C@@H](N)Cc1ccc(O)cc1)C(N)=O [Tyr-D-Ala-Phe-Leu-NH2, reference compound] (H-Y[dA]FL-NH2) | 10.00 | 0.3 | –
CSCC[C@H](NC(=O)[C@H](Cc1ccccc1)NC(=O)[C@@H](C)NC(=O)[C@@H](N)Cc1ccc(O)cc1)C(N)=O [Tyr-D-Ala-Phe-Met-NH2, reference compound] (H-Y[dA]FM-NH2) | 9.82 | 0.5 | –
CC(C)C[C@@H]1NC(=O)[C@H](Cc2ccccc2)NC(=O)[C@@H](NC(=O)[C@@H](N)Cc2ccc(O)cc2)CCNC(=O)[C@H](CCC(=O)O)NC1=O (H-Y[Dab]FLE; lactam 2-C (inferred); N-terminus assumed) | – | – | Bmax (binding capacity) ([1]; (3H)-DAMGO binding): 18.6 pmol
CC(C)C[C@@H]1NC(=O)[C@H](Cc2ccccc2)NC(=O)[C@@H](NC(=O)[C@@H](N)Cc2ccc(O)cc2)CCCCNC(=O)[C@H](CCC(=O)O)NC1=O (H-YKFLE; lactam 2-C) | 10.26 | – | –
CC(C)C[C@H](NC(=O)[C@H](Cc1ccccc1)NC(=O)[C@@H](C)NC(=O)[C@@H](N)Cc1ccc(O)cc1)C(=O)N[C@@H](CCC(=O)O)C(=O)O [Tyr-D-Ala-Phe-Leu-Glu] (H-Y[dA]FLE-OH) | 10.32 | 0.01 | –
CC(C)C[C@H](NC(=O)[C@H](CC(C)C)NC(=O)CNC(=O)[C@@H](N)Cc1ccc(O)cc1)C(=O)O [Tyr--Gly--Leu--Leu, Tyr-Gly-Leu-Leu] (H-YGLL-OH) | – | – | pKi [4]: 4.62; pKi [2]: 4.49
YPFLE [Tyr-Pro-Phe-Leu-Glu] | 10.62 | 0.01 | –
CC(C)C[C@@H]1NC(=O)[C@H](Cc2ccccc2)NC(=O)[C@@H](NC(=O)[C@@H](N)Cc2ccc(O)cc2)CSSC[C@@H](C(=O)O)NC1=O (H-YCFLC-OH; disulfide 2-5) | 9.62 | – | –
